These are literature values, as cited in patent US8268905B1, “Compositions containing poly(lactic acid), bacteriocin(s), plasticizers(s), and optionally pore forming agent(s), and methods or making” (The United States of America, as represented by the …, priority 2008, dated 2012).

The conditions of this series: background statement.

nisin: the “maximal temperature at which nisin can retain its bioactivity” value is 120 °C.
